Source: US20130289019A1, “METHODS OF TREATING BEHAVIORIAL AND/OR MENTAL DISORDERS” (AMAZING GRACE, INC., priority 2012, published 2013)
Entries after “also recorded” stand apart in the source; their conditions may differ. Marks after values point to notes of the source that are not given here.

Tests used:
[1] = system: glutamatergic NMDA receptor in the NAc; assay: NMDA receptor antagonists injected into the NAc (Rada et al. 2003); format: in vivo; details: Applicant's data (Rada et al. 2003)
Text: In the NAc, M2/M4 receptors are also located on glutamate-containing axonal terminals that originate from neurons located in corticolimbic and thalamic regions involved in depression and anxiety.

[2] = system: rats (NAcShell injection); assay: Porsolt swim test after injection of mAChR agonists and antagonists in the NAcShell; format: in vivo, rat; details: for Drug (sec), mean swimming time / Percent change of swimming time vs Ringer / Time diff (sec), drug vs Ringer: 600 sec swim test; for immobility in the swim test, effect in words: infusion into the NAcShell
Method: FIG. 3 is a graph illustrating swimming time following injections of cholinergic drugs in NAc (black bars), compared to Ringer (white bars). (A) Local injection of arecoline, a muscarinic agonist, decreased swim time; the animals quickly gave up (40 μg, −41%, n=8, t=3.53, p<0.01; and 80 μg, −66%, n=6, t=4.12, p<0.01). (B) Pirenzepine, an M1 antagonist, increased swimming escape attempts in the manner of an antidepressant, but note this is a local injection (17.5 μg, n=8, +39%, t=3.63, p<0.01; 35 μg, +40%, n=9, t=7.15, p<0.001). […] (D) Local gallamine, an M2 antagonist, decreased swim time (0.13 μg/side, −21%, n=7, t=3.72, p<0.01; 0.44 μg/side, −37%, n=8, t=2.95, p<0.05; 0.88 μg/side, −36%, n=7, t=4.64, p<0.01). Swimming time following Ringer is normalized to 100%, with each bar representing the mean of the normalized responses across subjects. Swimming time following a drug injection is expressed as a percentage of the swimming time following vehicle injection on a different day. Significant changes in the within-subject response to drug injections are indicated with asterisks (* p<0.05, ** p<0.01, *** p<0.001).
The Porsolt swim test is an animal model of depression widely used as a screen for drugs with potential antidepressant effects in humans and for elucidating the pharmacological mechanisms of action of antidepressant medications. For example, the following procedure may be used:
On the first day of this test (day 1), a rodent (typically a rat) is placed in a cylindrical water tank for 15 min. Then after 24 hours (day 2) and 48 hours (day 3), drug and Ringer are administered to the animal in counterbalanced order. Immediately following each injection, the animal is placed in the swim test for 10 min. The length of time it swims during the swim tests is recorded. “Swimming” is defined by escape behaviors (i.e. diving, rigorous paddling with all four legs, circling the tank, and clambering at the tank walls). ‘Immobility’ was scored as floating and treading water just enough to keep the nose above water. Typically, after the first swimming session, animals become behaviorally depressed as shown by swimming less on later test days (day 2 or 3). […] Antidepressants increase swimming without affecting locomotor activity, whereas non-antidepressant drugs such as certain psychostimulants may also decrease immobility, but also increase locomotor activity in the open field test. Therefore, to screen a potential antidepressant, the swim test is typically followed by test for hyperactivity in the open field.
Rats were placed in the 600 sec (10 min) swim test following injections of drugs in the NAcShell. When not swimming, rats floated or made minimal forepaw movements to keep their noses above water. Each rat received one drug counterbalanced with Ringer on a separate day. The shorter control swim times for the gallamine group, relative to groups that received other drugs, may have been due to a seasonal difference. Control injections, shown in the last line, were made 2 mm dorsal to the accumbens (Pirenzepine Ctrl). Asterisks indicate significant difference between drug and Ringer (* p<0.05; ** p<0.01; *** p<0.001).

[3] = system: rats (NAcShell injection); assay: locomotor activity in a photocell cage after drug injection in the NAcShell; format: in vivo, rat; details: 10 min following injection in NAcShell; arecoline 40 μg, pirenzepine 35 μg, scopolamine 1 μg, gallamine 0.88 μg
Method: FIG. 4 is a graph illustrating the effects of cholinergic drugs on locomotor activity in a photocell cage. Activity in the 10 min following drug injection in the NAcShell (black bars) is expressed as a percentage of control injections normalized to 100% (white bars).
FIG. 4 illustrates the effects of cholinergic drugs on locomotor activity in a photocell cage. Activity in the 10 min following drug injection in the NAc (black bars) is expressed as a percentage of control injections normalized to 100% (white bars).

[4] = system: extracellular ACh in NAcShell; assay: ACh efflux in NAcShell, infusion by reverse dialysis in freely moving rats; format: in vivo, rat
Method: To determine if the M2 drugs act presynaptically on autoreceptors controlling ACh release, freely moving rats received infusions of an M2 agonist or antagonist in the NAcShell for 20 min by reverse dialysis while extracellular ACh was measured.
To determine if the M2 drugs act presynaptically on autoreceptors controlling ACh release, freely moving rats received infusions of an M2 agonist or antagonist in the NAc for 20 min by reverse dialysis while extracellular ACh was measured.

[5] = system: patients with major depression and bipolar disorder; details: cited from earlier work
[6] = system: NAcShell of rats (ICSS reward threshold); assay: discrete trial current-threshold intracranial self-stimulation (ICSS), drugs infused into NAcShell; format: in vivo, rat; details: for ICSS threshold change: vs baseline, N=2; for ICSS threshold, effect in words: infused into the NAcShell during the ICSS procedure
Text: FIG. 2 is a graph illustrating the effect of antagonism of M1 mAChR and agonism of mAChR in the nucleus accumbens shell (NAcShell). The discrete trial current-threshold intracranial self-stimulation paradigm was used to assess the effect of cholinergic drugs infused directly into the NAcShell on reward, independent of performance. See below and Markou and Koob (Neuropsychopharmacology. 1991 January; 4(1):17-26) for detailed description of the paradigm. Thresholds measured in a rat vary little in the 4 pre-drug days (<7% of the mean or baseline). The non-selective mAChR agonist arecoline dose-dependently elevates threshold (0.01 M, +11%; 1.0 M, +57.5%, N=2). Pirenzepine dihydrochloride (Sigma-Aldrich, Saint Louis, Mo.), a selective M1 mAChR antagonist, dose-dependently lowers threshold (0.1 mM, −7%; 100 mM, […], N=2). The drugs were infused into the NAcShell at a steady rate by reversed microdialysis over the hour required to complete threshold testing.
Anhedonia may be assessed by applying the intracranial self-stimulation (ICSS) paradigm. The ICSS may be used to assess anhedonia, reward, hedonic capacity, and motivation in animals. In this paradigm, a rat performs an operant task (e.g. pressing a bar) to receive rewarding electrical stimulation through electrodes implanted into specific areas of the brain, including the lateral hypothalamus (LH), medial forebrain bundle (MFB), ventral tegmental area containing dopamine neurons (VTA), the nucleus accumbens shell or nucleus accumbens medial core, ventral pallidum, orbitofronal cortex (OPFC), medial frontal cortex (MPFC), cingulate cortex, lateral bed nucleus of the stria terminalis of the amygdala (BNST), mediodorsal thalamus (mdTham), lateral septum, the dorsal raphe containing serotonin neurons, the locus coeruleus containing norepinephrine neurons (see FIG. 1). As noted above, these regions supporting ICSS form an interconnected network commonly referred to as the “brain reward circuitry.”
A skilled artisan would recognize that variations of the ICSS paradigm may be used. For example, one of the most commonly used ICSS procedures, which has been experimentally validated and has shown to be reward-selective, is the discrete-trial current-intensity threshold procedure. This procedure directly and reliably assesses an animal's sensitivity to rewards, hedonic capacity, and motivation, independent of performance, i.e., ability to move (for detailed procedures see Markou and Koob, Neuropsychopharmacology. 1991 January; 4(1):17-26). The discrete trial current-intensity threshold ICSS procedure provides unique ways to investigate the anatomical and neurochemical basis of reward and motivation and is an important tool for assessing of the reward-facilitating or anhedonic effects of various drugs or medications.
Lowering of ICSS thresholds indicates facilitation of brain stimulation reward, whereas elevation in ICSS threshold indicates diminished reward value of the stimulation and thus an anhedonic state. Acute administration of most drugs of abuse, including cocaine, amphetamine, nicotine, morphine, and heroin, lower ICSS thresholds in experimental animals, logically because of their rewarding values. By contrast, withdrawal from chronic administration of these drugs elevates ICSS thresholds, indicating an anhedonic state that resembles the negative affective and motivational state of the drug withdrawal syndrome experienced by humans. Elevated ICSS threshold also occurs in animal models of depression. Such elevation in ICSS threshold reflects decreased sensitivity to rewarding stimuli, decreased hedonic capacity or motivation, and/or an aversive and dysphoric affective state of the animal model of depression. Importantly, administration of antidepressants normalizes or lowers ICSS threshold in such animals, indicating a reversal of reward and motivational deficits.
FIG. 2 is a graph illustrating the effect of antagonism of M1 mAChR and agonism of mAChR in the NAcShell. […]

[7] = system: NMDA receptor (depressed humans); details: human trials (Zarate et al. 2006); cited from earlier work
[8] = 17.5 μg/side, control injections 2 mm dorsal to the accumbens

C[C@]12N[C@H](Cc3ccccc31)c1ccccc12 [dizocilpine]
effect on depression, in words [1]: alleviate depression

CN1[C@@H]2C[C@@H](OC(=O)[C@H](CO)c3ccccc3)C[C@H]1[C@@H]1O[C@@H]12 [Scopolamine]
Drug (sec), mean swimming time ([2]; 0.5 μg/side in NAcShell): 306 ± 44 s
Percent change of swimming time vs Ringer ([2]; 0.5 μg/side in NAcShell): −12%
Time diff (sec), drug vs Ringer ([2]; 0.5 μg/side in NAcShell): -44 s
Percent change of swimming time vs Ringer ([2]; 0.5 μg/side in NAcShell, listed as scopolamine): N.S.
Drug (sec), mean swimming time ([2]; 1.0 μg/side in NAcShell): 541 ± 13*** sec
Percent change of swimming time vs Ringer ([2]; 1.0 μg/side in NAcShell): +50%
Time diff (sec), drug vs Ringer ([2]; 1.0 μg/side in NAcShell): +181 sec
Percent change of swimming time vs Ringer ([2]; 1.0 μg/side in NAcShell, listed as scopolamine): +50%
immobility in the swim test, effect in words [2]: decreases immobility
locomotor activity vs Ringer, in words [3]: not significantly different from Ringer; also recorded: without altering activity in the open field
extracellular ACh ([4]; 20 min infusion in NAcShell by reverse dialysis, oxotremorine 4 mM (hour following infusion), gallamine 1 mM, scopolamine 10 mM probe concentration): 220 % of baseline
duration of the ACh increase (until return to baseline) ([4]; gallamine 1 mM: time following the infusion, scopolamine 10 mM): more than 100 min
ACh level in the NAc, effect in words ([4]; inventor's data (Chau et al. 2001)): elevates ACh level in the NAc
rate of remission in female patients ([5]; human trials): ≤ 71%
duration of antidepressant/anti-anxiety effects ([5]; one single dose): more than 17 days
time to reduction of depression and anxiety ([5]; one single dose, patients with major depression and bipolar disorder): 3 to 5 days

NC(CCCP(=O)(O)O)C(=O)O (stereo not shown) [AP-5]
effect on depression, in words [1]: alleviate depression

COC(=O)C1=CCCN(C)C1 [Arecholine]
ICSS threshold change ([6]; arecoline 0.01 M infused into NAcShell by reversed microdialysis over 1 h): +11%
ICSS threshold change ([6]; arecoline 1.0 M infused into NAcShell by reversed microdialysis over 1 h): +57.5%
ICSS threshold, effect in words [6]: dose-dependently increases ICSS threshold
Drug (sec), mean swimming time ([2]; 40.0 μg/side in NAcShell): 235 ± 17** sec
Percent change of swimming time vs Ringer ([2]; 40.0 μg/side in NAcShell): −41%
Time diff (sec), drug vs Ringer ([2]; 40.0 μg/side in NAcShell): -162 s
Percent change of swimming time vs Ringer ([2]; 40.0 μg/side in NAcShell, listed as arecoline): −41%
Drug (sec), mean swimming time ([2]; 80.0 μg/side in NAcShell): 109 ± 34** sec
Percent change of swimming time vs Ringer ([2]; 80.0 μg/side in NAcShell): −66%
Time diff (sec), drug vs Ringer ([2]; 80.0 μg/side in NAcShell): -209 s
Percent change of swimming time vs Ringer ([2]; 80.0 μg/side in NAcShell, listed as arecoline): −66%
locomotor activity vs Ringer, in words [3]: significantly decreased

CNC1(c2ccccc2Cl)CCCCC1=O (stereo not shown) [ketamine]
antidepressant effect, in words [7]: rapid antidepressant effect

CN1CCN(CC(=O)N2c3ccccc3C(=O)Nc3cccnc32)CC1 [Pirenzepine]
ICSS threshold, effect in words [6]: dose-dependently lowers ICSS threshold
ICSS threshold change ([6]; pirenzepine 0.1 mM infused into NAcShell by reversed microdialysis over 1 h): −7%
ICSS threshold change ([6]; pirenzepine 100 mM infused into NAcShell by reversed microdialysis over 1 h): 14%
Drug (sec), mean swimming time ([2]; 17.5 μg/side in NAcShell): 480 ± 38** sec
Time diff (sec), drug vs Ringer ([2]; 17.5 μg/side in NAcShell): +134 sec
Drug (sec), mean swimming time [2, 8]: 301 ± 34 s
Percent change of swimming time vs Ringer [2, 8]: −10%
Time diff (sec), drug vs Ringer [2, 8]: -36 s
Drug (sec), mean swimming time ([2]; 35.0 μg/side in NAcShell): 412 ± 26*** sec
Time diff (sec), drug vs Ringer ([2]; 35.0 μg/side in NAcShell): +117 sec
immobility in the swim test, effect in words [2]: decreases immobility
locomotor activity vs Ringer, in words [3]: not significantly different from Ringer; also recorded: without altering activity in the open field
